How the values were obtained:
human VR1 [1] = biological target: T1, human VR1 (Homo sapiens, UniProt Q8NER1); assay: Human VR1 [3H]RTX binding assay; details: for h Binding % I (1 μM) / inhibition at 1 µM: inhibition of [3H]RTX binding at 1 μM; for Ki: [3H]RTX binding, HEK293 membranes; for inhibition at 1 µM: read-out: h Binding % I (1 μM)
T1 construct: expressed in transfected cells; host or cells: HEK293
Description: Compounds of the present invention were tested for their ability to inhibit the binding of tritiated resiniferatoxin ([^3H] RTX) to human VR1 receptors in a [^3H] RTX binding assay, as previously described (Zhang, Sui-Po. Improved ligand binding assays for vanilloid receptors. PCT Int. Appl. (2002), WO 0233411 A1 20020425 AN 2002:315209; Grant, Elfrida R., Dubin, Adrienne E., Zhang, Sui-Po, Zivin, Robert A., Zhong, Zhong Simultaneous intracellular calcium and sodium flux imaging in human VR1-transfected human embryonic kidney cells: a method to resolve ionic dependence of VR1-mediated cell death. J. Pharmacol. Exp. ther., 2002, 300(1), 9-17.) HEK293 cells were transfected with human VR1 and washed with Hank's balanced Salt Solution, dissociated with cell dissociation buffer (Sigma), and then centrifuged at 1000× g for 5 min. Cell pellets were homogenized in cold 20 mM HEPES buffer (pH 7.4), containing 5.8 mM NaCl, 320 mM sucrose, 2 mM MgCl2, 0.75 CaCl2 and 5 mM KCl and centrifuged at 1000× g for 15 min. The resultant supernate was then centrifuged at 40000× g for 15 min. The pelleted membranes were stored in a freezer at −80 C.
Approximately 120 μg protein/ml from membranes were incubated with indicated concentrations of [^3H]RTX in 0.5 ml of the HEPES buffer (pH 7.4) containing 0.25 mg/mL fatty acid-free bovine serum albumin at 37 C for 60 min. After cooling the reaction mixture to 4 C, 0.1 mg (x-acid glycoprotein was added to each sample, which was incubated at 4 C for 15 min and then centrifuged at 18500× g for 15 min. The tip of the microcentrifuge tube containing the pellet was cut off. Bound radioactivity was quantified by scintillation counting. Non-specific binding was assessed in the presence of 200 nM unlabeled resiniferatoxin.
Data were calculated according to the equation: % inhibtion=(total binding−binding)*100/(total binding−non specific binding).
Ki values were calculated based on an average of duplicate measurements using a GraphPad Prism program.

human VR1 [2] = biological target: T1, human VR1; assay: Human VR1 functional assay (FLIPR intracellular Ca2+); assay type: cell-based; details: for IC50: antagonism of capsaicin-induced Ca2+ increase, read-out: h IC50; for inhibition at 5 µM / inhibition at 1 µM / h % I (1 μM) / h % I (5 μM): inhibition of capsaicin response; for inhibition at 5 µM: read-out: h % I (5 μM); for inhibition at 1 µM: read-out: h % I (1 μM)
Description: The functional activity of the test compounds was determined by measuring changes in intracellular calcium concentration using a Ca^2+-sensitive fluorescent dye and FLIPR™ technology. Increases in Ca^2+ concentration were readily detected upon challenge with capsaicin. HEK293 Cells expressing human VR1 were grown on poly-D-lysine coated 384 well black-walled plates (BD 354663) and 1 day later loaded with Calcium 3 Dye for 35 min at 37 C, 5% CO2 and then for 25 min at room temperature, and subsequently tested for agonist-induced increases in intracellular Ca^2+ levels using FLIPR™ technology. Cells were challenged with test compounds (at varying concentrations, which are indicated in parentheses in the heading of the table below) and intracellular Ca^2+ was measured for 5 min prior to the addition of capsaicin to all wells to achieve a final concentration of eliciting an approximate 80% maximal response ([…]). EC50 or IC50 values were determined from dose-response studies. Curves were generated using the average of quadruplicate wells for each data point.

T1 sequence (Q8NER1 whole entry): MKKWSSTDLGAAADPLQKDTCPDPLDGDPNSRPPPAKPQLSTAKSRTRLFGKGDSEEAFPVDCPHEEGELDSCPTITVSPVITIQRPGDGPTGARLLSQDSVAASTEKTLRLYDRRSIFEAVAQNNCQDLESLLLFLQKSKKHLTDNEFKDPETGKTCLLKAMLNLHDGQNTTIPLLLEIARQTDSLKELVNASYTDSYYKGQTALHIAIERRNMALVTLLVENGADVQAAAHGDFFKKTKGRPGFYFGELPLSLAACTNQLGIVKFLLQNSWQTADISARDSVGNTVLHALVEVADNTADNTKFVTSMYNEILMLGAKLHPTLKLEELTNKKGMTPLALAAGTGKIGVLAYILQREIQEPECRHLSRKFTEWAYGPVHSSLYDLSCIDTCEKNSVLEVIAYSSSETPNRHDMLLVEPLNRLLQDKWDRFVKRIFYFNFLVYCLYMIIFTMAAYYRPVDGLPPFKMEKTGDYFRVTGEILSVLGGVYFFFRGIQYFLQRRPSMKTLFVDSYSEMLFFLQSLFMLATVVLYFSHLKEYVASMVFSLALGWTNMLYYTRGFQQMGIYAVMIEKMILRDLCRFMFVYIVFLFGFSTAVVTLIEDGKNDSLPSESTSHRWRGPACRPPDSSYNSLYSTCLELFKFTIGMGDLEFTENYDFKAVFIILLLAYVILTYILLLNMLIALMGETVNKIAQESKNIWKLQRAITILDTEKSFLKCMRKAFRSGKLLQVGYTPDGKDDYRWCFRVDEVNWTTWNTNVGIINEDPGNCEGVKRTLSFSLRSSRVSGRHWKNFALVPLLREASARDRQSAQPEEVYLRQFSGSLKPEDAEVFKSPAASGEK

| SMILES | h Binding % I (1 μM) (human VR1 [1]) | also measured |
| --- | --- | --- |
| CC(C)(C)c1ccc(CCC(=O)Nc2ccc(-c3ccncc3)c(C(=O)O)c2)cc1 [Cpd 141] | 1% | – |
| CC(=O)Nc1cccc(-c2ccc(NC(=O)CCc3ccc(C(C)(C)C)cc3)c3ccncc23)c1 [Cpd 154] | 15% | – |
| Cc1cc(C)n(-c2ccc(NC(=O)CCc3ccc(C(C)(C)C)cc3)cc2)n1 [Cpd 196] | 76% | – |
| O=C(CCc1ccc(C(F)(F)F)cc1)Nc1ccc(-c2ccncc2)c2cnccc12 [Cpd 159] | 1% | – |
| CC(C)(C)c1ccc(CCC(=O)Nc2ccc(-c3cccc(C(N)=O)c3)c(F)c2)cc1 [Cpd 53] | 27% | – |
| CC(C)(C)c1ccc(CCC(=O)Nc2cccc(-c3cncnc3)c2)cc1 [Cpd 117] | 1% | – |
| CC(=O)Nc1cccc(-c2ccc(NC(=O)CCc3ccc(C(C)(C)C)s3)cc2)c1 [Cpd 64] | 33% | – |
| CC(C)(C)c1ccc(CCC(=O)Nc2ccc(-c3ccc4cc[nH]c4c3)cc2)cc1 [Cpd 123] | 39% | – |
| CC(C)(C)c1ccc(CCC(=O)Nc2ccc(-c3ncccn3)cc2)cc1 [Cpd 112] | – | Ki (human VR1 [1]): 0.216 µM; inhibition at 1 µM (human VR1 [1]): 68% |
| CC(C)(C)c1ccc(CCC(=O)Nc2ccc(-n3ccnc3)cc2)cc1 [Cpd 261] | – | Ki (human VR1 [1]): 0.311 µM |
| CNC(=O)c1cccc(-c2ccc(NC(=O)CCc3ccc(C(C)(C)C)cc3)c(C(=O)O)c2)c1 [Cpd 67] | 1% | – |
| CC(C)(C)c1ccc(/C=C/C(=O)Nc2cccc(-c3cccc(C(N)=O)c3)c2)cc1 [Cpd 33] | – | Ki (human VR1 [1]): 0.171 µM; inhibition at 1 µM (human VR1 [1]): 82% |
| CC(C)(C)c1ccc(CCC(=O)Nc2ccc(-c3cccc(CO)c3)cc2)cc1 [Cpd 23] | 40% | – |
| COc1ccc(-c2ccc(NC(=O)CCc3ccc(C(C)(C)C)cc3)cc2)cn1 [Cpd 121] | 36% | – |
| CC(C)(C)c1ccc(CCC(=O)Nc2ccc(-c3cccc4[nH]ccc34)cc2)cc1 [Cpd 122] | – | Ki (human VR1 [1]): 0.335 µM; inhibition at 1 µM (human VR1 [1]): 64% |
| CC(C)(C)c1ccc(CCC(=O)Nc2ccc(-c3cnco3)cc2)cc1 [Cpd 193] | 49% | – |
| CC(C)(C)c1ccc(CCC(=O)Nc2ncc(-c3cccc(C(N)=O)c3)cn2)cc1 [Cpd 130] | 1% | – |
| CC(C)(C)c1ccc(CCC(=O)Nc2cnc(-c3cccc(C(N)=O)c3)cn2)cc1 [Cpd 131] | 1% | – |
| CC(C)(C)c1ccc(CCC(=O)Nc2ccc(-c3cccc(O)c3)c3cnccc23)cc1 [Cpd 155] | 89% | – |
| Cc1cc(NC(=O)CCc2ccc(C(C)(C)C)cc2)ccc1-c1cccc(C(N)=O)c1 [Cpd 51] | 19% | – |
| CC(C)(C)c1ccc(CCC(=O)Nc2ccc(-c3cccc(O)c3)cc2C(=O)O)cc1 [Cpd 68] | 1% | – |
| O=C(CCc1ccc(C(F)(F)F)cc1)Nc1ccc(-c2cccc(O)c2)c2cnccc12 [Cpd 158] | 77% | – |
| CC(=O)Nc1cccc(-c2ccc(NC(=O)CCc3ccc(C(C)(C)C)cc3)nc2)c1 [Cpd 125] | 1% | – |
| CC(C)(C)c1ccc(CCC(=O)Nc2ccc(-c3cccc(C(N)=O)c3)cc2F)cc1 [Cpd 52] | 1% | – |
| CC(=O)Nc1cccc(-c2ccc(NC(=O)CCc3ccc(C(C)(C)C)cc3)c(F)c2)c1 [Cpd 56] | 16% | – |
| COc1ccc(-c2cccc(NC(=O)CCc3ccc(C(C)(C)C)cc3)c2)cn1 [Cpd 119] | 1% | – |

| SMILES | h Binding % I (1 μM) (human VR1 [1]) | also measured |
| --- | --- | --- |
| CC(C)(C)c1ccc(CCC(=O)Nc2cccc(-c3cccnc3)c2)cc1 [Cpd 106] | 1% | – |
| O=C(CCc1ccc(C(F)(F)F)cc1)Nc1ccc(-c2ccccc2O)nc1 [Cpd 146] | 8% | – |
| CC(C)(C)c1ccc(CCC(=O)Nc2ccc(-c3cccc(C(N)=O)c3)cc2C(=O)O)cc1 [Cpd 66] | 1% | – |
| CC(C)(C)c1ccc(CCC(=O)Nc2ccc(-n3cnc(Cl)c3Cl)cc2)cc1 [Cpd 200] | 100% | – |
| Cc1cc(-c2cccc(C(N)=O)c2)ccc1NC(=O)CCc1ccc(C(C)(C)C)cc1 [Cpd 50] | 11% | – |
| CC(C)(C)c1ccc(CCC(=O)Nc2ccc(-c3ccncc3)c3cnccc23)cc1 [Cpd 156] | 33% | – |
| CC(C)(C)c1ccc(CCC(=O)Nc2ccc(-c3ccccn3)cc2)cc1 [Cpd 110] | – | Ki (human VR1 [1]): 0.0113 µM; inhibition at 1 µM (human VR1 [1]): 97% |
| CC(C)(C)c1ccc(CCC(=O)Nc2ccc(-c3cccc(C#N)c3)cc2)cc1 [Cpd 25] | – | Ki (human VR1 [1]): 0.103 µM; inhibition at 1 µM (human VR1 [1]): 94% |
| COc1cccc(-c2ccc(NC(=O)CCc3ccc(C(C)(C)C)cc3)cc2)c1 [Cpd 27] | – | Ki (human VR1 [1]): 0.846 µM; inhibition at 1 µM (human VR1 [1]): 53% |
| NC(=O)c1cccc(-c2ccc(NC(=O)/C=C/c3ccc(C(F)(F)F)cc3)cc2)c1 [Cpd 47] | 1% | – |
| CC(C)(C)c1ccc(CCC(=O)Nc2ccc(-c3c[nH]cn3)cc2)cc1 [Cpd 192] | 50% | – |
| CC(C)(C)c1ccc(CCC(=O)Nc2ccc(-c3cccc(C(N)=O)c3)nc2)cc1 [Cpd 127] | 16% | – |
| CC(C)(C)c1ccc(CCC(=O)Nc2ccc(-c3cccc(CO)c3)nc2)cc1 [Cpd 134] | 25% | – |
| CC(C)(C)c1ccc(CCC(=O)Nc2ccc(-c3ccncc3)cc2C(=O)O)cc1 [Cpd 139] | 1% | – |
| CC(C)(C)c1ccc(CCC(=O)Nc2ccc(-c3ccncc3)cc2CO)cc1 [Cpd 140] | 1% | – |
| Cc1cc(NC(=O)CCc2ccc(C(C)(C)C)cc2)cc(C)c1-c1cccc(O)c1 [Cpd 86, 3-(4-tert-butyl-phenyl)-N-(3′-hydroxy-2,6-dimethyl-biphenyl-4-yl)-propionamide] | – | IC50 (human VR1 [2]): 0.109 µM; inhibition at 5 µM (human VR1 [2]): 97% |
| CC(C)(C)c1ccc(CCC(=O)Nc2cc(F)c(-c3cccnc3)c(F)c2)cc1 [Cpd 168] | – | IC50 (human VR1 [2]): 1.56 µM; inhibition at 5 µM (human VR1 [2]): 95% |
| Cc1cc(NC(=O)CCc2ccc(C(C)(C)C)cc2)ccc1-c1ccccn1 [Cpd 172] | – | IC50 (human VR1 [2]): 0.142 µM |
| Cc1cn(-c2ccc(NC(=O)CCc3ccc(SC(F)(F)F)cc3)cc2C(F)(F)F)cn1 [Cpd 219] | – | IC50 (human VR1 [2]): 0.1 µM; inhibition at 1 µM (human VR1 [2]): 100% |
| O=C(CCc1ccc(C(F)(F)F)cc1)Nc1ccc(-n2cnc3c2CCCC3)c(C(F)(F)F)c1 [Cpd 270, N-[4-(4,5,6,7-Tetrahydro-benzoimidazol-1-yl)-3-trifluoromethyl-phenyl]-3-(4-trifluoromethyl-phenyl)-propionamide] | – | inhibition at 1 µM (human VR1 [2]): 47% |
| O=C(CCc1ccc(F)cc1)Nc1ccc(-n2ccnc2)c(C(F)(F)F)c1 [Cpd 279] | – | h % I (1 μM) (human VR1 [2]): 30% |
| CC(C)(C)c1ccc(CCC(=O)Nc2cnc(-c3ccc(CO)cc3)cn2)cc1 [Cpd 186] | – | h % I (1 μM) (human VR1 [2]): 6%; h % I (5 μM) (human VR1 [2]): 39% |
| O=C(CCc1ccc(C(F)(F)F)cc1)Nc1cnc(-c2cccnc2)c(C(F)(F)F)c1 [Cpd 249] | – | IC50 (human VR1 [2]): 0.613 µM; inhibition at 5 µM (human VR1 [2]): 100% |
| CC(C)(C)c1ccc(CCC(=O)Nc2cnc(-c3cccnc3)cn2)cc1 [Cpd 187] | – | h % I (1 μM) (human VR1 [2]): 11%; h % I (5 μM) (human VR1 [2]): 15% |
| O=C(CCc1ccc(C(F)(F)F)cn1)Nc1ccc(-n2cnc(Cl)c2Cl)c(C(F)(F)F)c1 [Cpd 248] | – | IC50 (human VR1 [2]): 0.602 µM; inhibition at 1 µM (human VR1 [2]): 83% |

From patent US20060223837A1 (priority 2005, published 2006)
